Patent publication US20170020909A1, “METHODS OF TREATING GLAUCOMA USING AMP-ACTIVATED PROTEIN KINASE (AMPK) ACTIVATORS” (Massachusetts Eye and Ear Infirmary, priority 2014, published 2017)

Assays:
[1] = test system: collagen I; assay: Immunoblot of collagen I in conditioned media of human TM cells; assay type: cell-based; conditions: 24 hours
Description: (§1) FIGS. 5A-E. AICAR suppresses ECM proteins in primary human TM cells under basal and TGF-β2 stimulatory conditions. (A) Representative immunoblots of ECM proteins from conditioned media (CM) of human TM cells treated for 24 hours with PBS vehicle or 0.5 mM AICAR and (B) integrated band intensities calculated from those immunoblots. (C) Representative immunoblots of ECM proteins from CM of human TM cells under stimulation with 2.5 ng/mL TGF-β2. Cells were pre-incubated for 1 hour with PBS or 0.5 mM AICAR prior to full 24-hour treatment. (D) Mean integrated band intensities. Data in panels B and D are expressed as mean±SEM (*p<0.05 vs. PBS vehicle by student t-test; n=5-7). (E) Representative 10% acrylamide gels stained with Coomassie Brilliant Blue as a loading control. […]
(§2) At the conclusion of each experiment for matricellular and ECM protein detection, conditioned media (CM) from TM cell cultures was harvested and centrifuged at 5000 rpm for 10 minutes at 4° C. The supernatant was then concentrated (Amicon Ultra-4 Filter Unit, 10 kDa; Millipore, Milford, Mass.), and protein content quantified using the DC Protein Assay kit adhering to manufacturer's protocols (Bio-Rad, Hercules, Calif.). […] Samples were then centrifuged at 14,000 rpm for 15 minutes at 4° C. and protein content quantified. […]

[2] = test system: TSP-1; assay: Immunoblot of TSP-1 in conditioned media of human TM cells; assay type: cell-based; conditions: 24 hours
Description: as §1, §2

[3] = 0.5 mM AICAR vs PBS vehicle, basal
[4] = 0.5 mM AICAR, under TGF-β2 stimulation with 2.5 ng/mL

Structure (SMILES): NC(=O)c1ncn([C@@H]2O[C@H](CO)[C@@H](O)[C@H]2O)c1N [AICAR, 5-Aminoimidazole-4-carboxamide riboside]
- decrease in collagen I (mean integrated band intensity) [1, 3]: 70%
- decrease in collagen I level [1, 4]: 26%
- change in TSP-1 (mean integrated band intensity) [2, 3]: no change
- change in TSP-1 levels [2, 4]: no change
